# Assay results reported in patent US8420574B2, “Plant growth enhancement with combinations of PESA and herbicides” (Valent BioSciences Corporation, priority 2009, dated 2013).
# Columns and labels:
# Type in all cases: in vivo
# rice cv. Cheniere [1] = assay: Pouch assay, PESA salt and herbicide added to the pouch solution; root and shoot length
# Description: Alternatively, PESA salt and herbicides may be added separately to the sterile water in the growth pouch.
# (§1) Seeds were placed in germination pouches consisting of germination paper hydrated with sterile water that was an insert in a gas-permeable 16×14 cm plastic pouch (CYG Pouch; Mega International, St. Paul, Minn.). In these examples, in pouch solution evaluation, PESA sodium salt or other active ingredients were added to the sterile water in the pouch. The pouches were arranged in a completely randomized block design in growth racks and placed in 19-liter polycarbonate food storage containers (Rubbermaid Commercial Products, Winchester, Va.). The sealed containers were held in an upright growth cabinet maintained at 25 C with a 12 hour light: 12 hour dark photoperiod. After 6 days, the containers were removed from the growth cabinet, and the lengths of the roots and shoot were measured.
# rice cv. Nipponbare = assay: Hydroponic assay; total root length and shoot length; conditions: for Shoot Length / Total Root Length: 0 ppm PESA salt
# Description: Where hydroponically-grown rice was used in studies, the seeds were pre-incubated in water at 30 C for 2 days to stimulate germination. Three seeds were placed on a float and cultivated hydroponically in a test tube (25 mm×200 mm), which contained 50 ml of Kimura B nutrient solution at ⅛th strength supplemented with herbicides and PESA sodium salt. The exposure of the roots to the light was prevented by wrapping the tubes with aluminum foil. The rice seedlings were incubated in a growth cabinet at 25 C under continuous light for 14 days, and the total root length and shoot length were measured. Total root length (cm) was the root length/plant determined following scanning with WinRhizo software (Regent Instruments INC, Toronto, Canada).
# rice cv. Cheniere [2] = assay: Emergence of seed-treated rice seeded onto soil previously treated with herbicide; conditions: no seed treatment (Control), untreated 90
# Text: Seed was sieved with a screen of mesh size appropriate to remove broken seeds and small trash. Cracked or otherwise damaged seeds were removed. The seed was well mixed, and 50 g samples were weighed into small plastic trays. […] A fungicide (Maxim XL; Syngenta Agricultural Products, Greensboro, N.C.), a polymeric binder (CF-Clear; Becker-Underwood, Ames, Iowa), and a colorant (Color Coat Red; Becker-Underwood, Ames, Iowa) were also included in the slurry at label rates. A small aliquot of this slurry was applied to the seed using the Hege 11 coater (Wintersteiger, Salt Lake City, Utah) with a six-inch bowl at a slurry rate of 30 ounces per 100 lbs of seed. The slurry was deposited drop-wise on the spinning disk atomizer using a syringe.
# Rice cv. […] It was then seeded onto soil which was previously sprayed with the pendimethalin herbicide Prowl H2O® (BASF Agricultural Products, Research Triangle Park, N.C.).
# After seed treatment, rice was seeded into soil previously treated with the dithiopyr herbicide Dimension®.
# Rice seed treated with PESA was tested for its ability to protect rice from the herbicide Roundup WeatherMax® (glyphosate). After seed treatment, rice was seeded into soil previously treated with the Roundup WeatherMax®.
# cotton = assay: Pouch assay; root and shoot length of cotton; conditions: 0 ppm PESA salt; for Shoot Length: untreated 4.7; for Root Length: untreated 7.7
# Description: as §1
# [3] = 10 ppm dithiopyr, treatment none (Control), 30 ppm PESA salt, 10 ppm GA3 or both, untreated 3.9
# [4] = 10 ppm dithiopyr, treatment none (Control), 30 ppm PESA salt, 10 ppm GA3 or both, untreated 9.5
# [5] = 50 ppm pendimethalin, treatment none (Control), 30 ppm PESA salt, 10 ppm GA3 or both, untreated 3.9
# [6] = 50 ppm pendimethalin, treatment none (Control), 30 ppm PESA salt, 10 ppm GA3 or both, untreated 9.7
# [7] = pendimethalin (Table 4, 50 ppm)
compound,measurement,setting,value
"CSC(=O)c1c(C(F)F)nc(C(F)(F)F)c(C(=O)SC)c1CC(C)C [Dithiopyr, dithiopyr, reference compound]",Shoot Length,"rice cv. Cheniere [1]; 1 ppm dithiopyr, 0 ppm PESA salt, untreated 4.0",4.3 cm
same,Root Length,"rice cv. Cheniere [1]; 1 ppm dithiopyr, 0 ppm PESA salt, untreated 9.5",10.0 cm
same,root length reduced by,rice cv. Cheniere [1]; 10 ppm dithiopyr,30%
same,Shoot Length,"rice cv. Cheniere [1]; 10 ppm dithiopyr, 0 ppm PESA salt, untreated 4.0",3.5 cm
same,Root Length,"rice cv. Cheniere [1]; 10 ppm dithiopyr, 0 ppm PESA salt, untreated 9.5",6.7 cm
same,Shoot Length,rice cv. Cheniere [1]; [3],3.0 cm
same,Root Length,rice cv. Cheniere [1]; [4],4.1 cm
same,Shoot Length,"rice cv. Cheniere [1]; 100 ppm dithiopyr, 0 ppm PESA salt, untreated 4.0",1.2 cm
same,Root Length,"rice cv. Cheniere [1]; 100 ppm dithiopyr, 0 ppm PESA salt, untreated 9.5",0.4 cm
"COc1cc(OC)nc(NC(=O)NS(=O)(=O)c2c(Cl)nc3ccccn23)n1 [Imazosulfuron, imazosulfuron, reference compound]",Shoot Length,"rice cv. Nipponbare; 0.01 ppm imazosulfuron, untreated 11.4",12.6 cm
same,Total Root Length,"rice cv. Nipponbare; 0.01 ppm imazosulfuron, untreated 44.9",41.4 cm
same,root length reduced by,rice cv. Nipponbare; 0.1 ppm imazosulfuron,49%
same,Shoot Length,"rice cv. Nipponbare; 0.1 ppm imazosulfuron, untreated 11.4",8.6 cm
same,Total Root Length,"rice cv. Nipponbare; 0.1 ppm imazosulfuron, untreated 44.9",23.1 cm
same,shoot length reduced by,rice cv. Nipponbare; 1 ppm imazosulfuron,86%
same,Shoot Length,"rice cv. Nipponbare; 1 ppm imazosulfuron, untreated 11.4",1.6 cm
same,Total Root Length,"rice cv. Nipponbare; 1 ppm imazosulfuron, untreated 44.9",4.9 cm
"O=C(O)CNCP(=O)(O)O [Glyphosate, glyphosate, reference compound]",Percent Emergence at 9 days after planting,rice cv. Cheniere [2]; glyphosate 23 μg/cm2 (Roundup),72%
same,Percent Emergence at 9 days after planting,rice cv. Cheniere [2]; glyphosate 90 μg/cm2 (Roundup),12%
"COc1nc(C)nc(NC(=O)NS(=O)(=O)c2ccccc2Cl)n1 [Chlorsulfuron, chlorsulfuron, reference compound]",Shoot Length,"rice cv. Cheniere [1]; 10 ppm chlorsulfuron, 0 ppm PESA salt, untreated 4.8",0.9 cm
same,Root Length,"rice cv. Cheniere [1]; 10 ppm chlorsulfuron, 0 ppm PESA salt, untreated 11.6",0.6 cm
same,Shoot Length,"rice cv. Cheniere [1]; 100 ppm chlorsulfuron, 0 ppm PESA salt, untreated 4.8",0.7 cm
same,Root Length,"rice cv. Cheniere [1]; 100 ppm chlorsulfuron, 0 ppm PESA salt, untreated 11.6",0.3 cm
same,Shoot Length,cotton; 1 ppm chlorsulfuron,2.3 cm
same,Root Length,cotton; 1 ppm chlorsulfuron,2.1 cm
same,Shoot Length,cotton; 10 ppm chlorsulfuron,1.5 cm
same,Root Length,cotton; 10 ppm chlorsulfuron,1.8 cm
same,Shoot Length,cotton; 100 ppm chlorsulfuron,1.7 cm
same,Root Length,cotton; 100 ppm chlorsulfuron,1.9 cm
"C#CCOC(=O)[C@@H](C)Oc1ccc(Oc2ncc(Cl)cc2F)cc1 [Clodinafop-propargyl, clodinafop-propargyl, reference compound]",Shoot Length,"rice cv. Nipponbare; 0.3 ppm clodinafop-propargyl, untreated 10.6",10.2 cm
same,Total Root Length,"rice cv. Nipponbare; 0.3 ppm clodinafop-propargyl, untreated 52.1",45.3 cm
same,Shoot Length,"rice cv. Nipponbare; 1 ppm clodinafop-propargyl, untreated 10.6",10.9 cm
same,Total Root Length,"rice cv. Nipponbare; 1 ppm clodinafop-propargyl, untreated 52.1",11.5 cm
same,root length reduced by,rice cv. Nipponbare; 3 ppm clodinafop-propargyl,91%
same,Shoot Length,"rice cv. Nipponbare; 3 ppm clodinafop-propargyl, untreated 10.6",7.5 cm
same,Total Root Length,"rice cv. Nipponbare; 3 ppm clodinafop-propargyl, untreated 52.1",4.7 cm
"C=C1C[C@]23C[C@@]1(O)CC[C@H]2[C@@]12C=C[C@H](O)[C@@](C)(C(=O)O1)[C@H]2[C@@H]3C(=O)O [GA3, gibberellic acid, reference compound]",Shoot Length,"rice cv. Cheniere [1]; 0 ppm pendimethalin, treatment 30 ppm PESA salt, 10 ppm GA3 or both, untreated 3.9",7.7 cm
same,Root Length,"rice cv. Cheniere [1]; 0 ppm pendimethalin, treatment 30 ppm PESA salt, 10 ppm GA3 or both, untreated 9.7",10.8 cm
same,Shoot Length,rice cv. Cheniere [1]; [3],5.6 cm
same,Root Length,rice cv. Cheniere [1]; [4],4.7 cm
same,Shoot Length,rice cv. Cheniere [1]; [5],1.5 cm
same,Root Length,rice cv. Cheniere [1]; [6],2.7 cm
same,protection of roots and shoots from pendimethalin,rice cv. Cheniere [1]; in the growth medium with pendimethalin (Table 4),only marginally effective at protecting the roots and shoots from pendimethalin
same,Shoot Length,"rice cv. Cheniere [1]; no dithiopyr (Control), treatment 30 ppm PESA salt, 10 ppm GA3 or both, untreated 3.9",7.0 cm
same,Root Length,"rice cv. Cheniere [1]; no dithiopyr (Control), treatment 30 ppm PESA salt, 10 ppm GA3 or both, untreated 9.5",10.7 cm
"CCc1cccc(C)c1N(C(=O)CCl)C(C)COC (stereo not drawn) [Metolachlor, metolachlor, reference compound]",Shoot Length,"rice cv. Cheniere [1]; 1 ppm metolachlor, 0 ppm PESA salt, untreated 3.7",3.6 cm
same,Root Length,"rice cv. Cheniere [1]; 1 ppm metolachlor, 0 ppm PESA salt, untreated 9.3",8.2 cm
same,decrease in root length,rice cv. Cheniere [1]; 10 ppm metolachlor,60%
same,Shoot Length,"rice cv. Cheniere [1]; 10 ppm metolachlor, 0 ppm PESA salt, untreated 3.7",0.9 cm
same,Root Length,"rice cv. Cheniere [1]; 10 ppm metolachlor, 0 ppm PESA salt, untreated 9.3",3.7 cm
same,Shoot Length,"rice cv. Cheniere [1]; 100 ppm metolachlor, 0 ppm PESA salt, untreated 3.7",0.6 cm
same,Root Length,"rice cv. Cheniere [1]; 100 ppm metolachlor, 0 ppm PESA salt, untreated 9.3",1.6 cm
"COc1c(Cl)ccc(Cl)c1C(=O)O [Dicamba, dicamba, reference compound]",Shoot Length,"rice cv. Nipponbare; 0.01 ppm dicamba, untreated 11.4",10.6 cm
same,Total Root Length,"rice cv. Nipponbare; 0.01 ppm dicamba, untreated 44.9",21.3 cm
same,root length reduced by,rice cv. Nipponbare; 0.1 ppm dicamba,87%
same,shoot length reduced by,rice cv. Nipponbare; 0.1 ppm dicamba,61%
same,Shoot Length,"rice cv. Nipponbare; 0.1 ppm dicamba, untreated 11.4",4.5 cm
same,Total Root Length,"rice cv. Nipponbare; 0.1 ppm dicamba, untreated 44.9",6.0 cm
same,Shoot Length,"rice cv. Nipponbare; 1 ppm dicamba, untreated 11.4",3.8 cm
same,Total Root Length,"rice cv. Nipponbare; 1 ppm dicamba, untreated 44.9",0.0 cm
"C#CCN1C(=O)COc2cc(F)c(N3C(=O)C4=C(CCCC4)C3=O)cc21 [Flumioxazin, flumioxazin, reference compound]",Shoot Length,"rice cv. Nipponbare; 0.1 ppm flumioxazin, untreated 10.6",10.7 cm
same,Total Root Length,"rice cv. Nipponbare; 0.1 ppm flumioxazin, untreated 52.1",41.5 cm
same,Shoot Length,"rice cv. Nipponbare; 0.3 ppm flumioxazin, untreated 10.6",11.0 cm
same,Total Root Length,"rice cv. Nipponbare; 0.3 ppm flumioxazin, untreated 52.1",64.1 cm
same,root length reduced by,rice cv. Nipponbare; 1 ppm flumioxazin,28%
same,shoot length reduced by,rice cv. Nipponbare; 1 ppm flumioxazin,64%
same,Shoot Length,"rice cv. Nipponbare; 1 ppm flumioxazin, untreated 10.6",3.8 cm
same,Total Root Length,"rice cv. Nipponbare; 1 ppm flumioxazin, untreated 52.1",14.5 cm
same,Shoot Length,"rice cv. Nipponbare; 3 ppm flumioxazin, untreated 10.6",5.9 cm
same,Total Root Length,"rice cv. Nipponbare; 3 ppm flumioxazin, untreated 52.1",15.7 cm
"CCC(CC)Nc1c([N+](=O)[O-])cc(C)c(C)c1[N+](=O)[O-] [Pendimethalin, pendimethalin, reference compound]",Shoot Length,"rice cv. Cheniere [1]; 10 ppm pendimethalin, 0 ppm PESA salt, untreated 3.4",3.4 cm
same,Root Length,"rice cv. Cheniere [1]; 10 ppm pendimethalin, 0 ppm PESA salt, untreated 8.5",8.3 cm
same,Shoot Length,rice cv. Cheniere [1]; [5],1.3 cm
same,Root Length,rice cv. Cheniere [1]; [6],2.9 cm
same,root length reduced by,rice cv. Cheniere [1]; 100 ppm pendimethalin,70%
same,Shoot Length,"rice cv. Cheniere [1]; 100 ppm pendimethalin, 0 ppm PESA salt, untreated 3.4",1.0 cm
same,Root Length,"rice cv. Cheniere [1]; 100 ppm pendimethalin, 0 ppm PESA salt, untreated 8.5",2.5 cm
same,Shoot Length,"rice cv. Cheniere [1]; 500 ppm pendimethalin, 0 ppm PESA salt, untreated 3.4",0.5 cm
same,Root Length,"rice cv. Cheniere [1]; 500 ppm pendimethalin, 0 ppm PESA salt, untreated 8.5",0.5 cm
same,root length decreased by,rice cv. Cheniere [1]; [7],75%
same,shoot length decreased by,rice cv. Cheniere [1]; [7],67%
